Values of other authors as cited in publication PMC3035168 (Chemistry & biology, 2010).
Residues, ends and D or L forms follow the SMILES beside them. *: point of attachment. Cbz = O=C(OCc1ccccc1)*; CH2F = FC*

Columns and labels:
[1] = tested on: striatal neurons; settings: ref Schulz et al., 1998
[2] = tested on: HD transgenic mouse models; settings: ref Chen et al., 2000
[3] = mouse, in vivo

COC(=O)C[C@H](NC(=O)[C@H](C)NC(=O)[C@@H](NC(=O)OCc1ccccc1)C(C)C)C(=O)CF [zVAD-fmk] (Cbz-Val-Ala-Asp(OMe)-CH2F)
protection against malonate-induced excitoxicity [1]: protected striatal neurons

CN(C)c1ccc(O)c2c1C[C@H]1C[C@H]3[C@H](N(C)C)C(O)=C(C(N)=O)C(=O)[C@@]3(O)C(O)=C1C2=O [minocycline]
effect on cell death ([2]; HD transgenic mouse models): delays cell death | effect on caspase-1 and caspase-3 transcription ([2]; through indirect means): inhibits caspase-1 and caspase-3 transcriptional upregulation

C[C@H](NC(=O)C(=O)Nc1ccccc1C(C)(C)C)C(=O)N[C@@H](CC(=O)O)C(=O)COc1c(F)c(F)cc(F)c1F [IDN-6556]
toxicity [3]: nontoxic
